From patent US20120004285A1, “ERBB-3 (HER3)-SELECTIVE COMBINATION THERAPY” (ENZON PHARMACEUTICALS, INC., priority 2008, published 2012)
Oligonucleotides are written 5' to 3', each unit as a sugar letter and its base; * is a phosphorothioate linkage, no mark a phosphodiester; rarer units and linkages stand in square brackets, end groups in braces. Plain capitals give the bases only. l = locked nucleic acid (LNA); [5mC] = 5-methylcytosine; d = 2'-deoxy (DNA)

Assays:
Type in all cases: cell-based, human
15PC3 cells = experiment: Cell proliferation assay (MTS), 15PC3; conditions: FIG. 3A
Method: (§1) Cells were cultured in the medium as described below and maintained at 37° C. at 95% humidity and 5% CO2. Cells were routinely passaged 2-3 times weekly.
(§2) 15PC-3 (Santaris Pharma): The human prostate cancer cell line 15PC-3 was cultured in DMEM (ATCC)+10% fetal bovine serum (FBS)+2 mM Glutamax™ I+gentamicin (25 μg/ml). A549 (ATCC): The human lung cancer cell line A549 was cultured in F12K Medium (ATCC)+10% FBS+2 mM Glutamax™ I+Penicillin (100 u/ml)/Streptomycin (100 μg/ml). DU145 (ATCC): The human prostate cancer cell line DU145 was cultured in Eagle's Minimum Essential Medium (ATCC)+10% FBS+2 mM Glutamax™ I+Penicillin (100 u/ml)/Streptomycin (100 μg/ml). […]
(§3) . The treated cells were then subjected to proliferation assay by MTS and ErbB3 mRNA quantitation by qRT-PCR, respectively (see below). […]
(§4) The proliferation assay was carried out by using CellTiter 96® Aqueous One solution reagent (Promega, Cat# 358B) following the manufacturer's instructions. […] The absorbance was measured at […] with a reference of 650 nm using an ELISA reader (Molecular Devices). The background for the assay was measured from wells containing only medium and was subtracted from the signal from the wells containing cells. The absorbance at 490 nm (OD490 nm) is proportional to the viable cell number in culture.

DU145 cells = experiment: Cell proliferation assay (MTS), DU145; conditions: FIG. 4A
Method: as §1, §2, §3, §4

SKBR3 cells = experiment: Cell proliferation assay (MTS), SKBR3; conditions: FIG. 5A
Method: as §1, §2, §3, §4

A549 cells = experiment: Cell proliferation assay (MTS), A549; conditions: FIG. 1A
Method: as §1, §2, §3, §4

ErbB3 mRNA [1] = experiment: ErbB3 mRNA level by qRT-PCR in H1993 cells; conditions: ON180 alone, FIG. 2C
Method: (§5) The cells were treated with either ON180 or an LNA-containing oligonucleotide having a scrambled base sequence as set forth in SEQ ID NO: 236 (hereinafter referred to as “ONCONT”) using the cationic liposome formulation Lipofectamine™-2000 (Invitrogen™) as transfection vehicle. Cells were seeded in 6-well plates (NUNC™) and treated when 50-60% confluent. The transfection of cells by ON180 was performed as described by the manufacturer using serum-free OptiMEM® (Gibco™) and 5 μg/ml Lipofectamine™-2000. ONCONT served as a negative control. The treated cells were incubated at 37° C. for 4 hours and then washed with OptiMEM®, after which regular serum-containing medium was added.
(§6) The treated cells were then subjected to proliferation assay by MTS and ErbB3 mRNA quantitation by qRT-PCR, respectively (see below). Each experiment was performed at least two times.
(§7) Total RNA was extracted from the treated cells as described above, using Qiagen RNeasy Plus Mini Kit (Cat# 74134). One-step qRT-PCR was used to examine ErbB3 mRNA levels in the cells by using the QuantiTect Probe RT-PCR kit (Cat#: 204443; Qiagen) according to the manufacturer's instructions. The sequences for the primers and probes were as follows: […]
(§8) The qRT-PCR was performed on the Applied Biosystems 7500 Fast Real-Time PCR System using 120 ng of total RNA sample. GAPDH mRNA served as an internal control.

ErbB3 mRNA [2] = experiment: ErbB3 mRNA level by qRT-PCR in 15PC3 cells; conditions: ON180 alone, FIG. 3C
Method: as §5, §6, §7, §8

H1993 cells = experiment: Cell proliferation assay (MTS), H1993; conditions: ON180 alone, Lipofectamine-2000 transfection, FIG. 2A, 2B, read-out: cell growth IC50
Method: (§9) Cells were routinely passaged 2-3 times weekly.
(§10) 15PC-3 (Santaris Pharma): The human prostate cancer cell line 15PC-3 was cultured in DMEM (ATCC)+10% fetal bovine serum (FBS)+2 mM Glutamax™ I+gentamicin (25 μg/ml). A549 (ATCC): The human lung cancer cell line A549 was cultured in F12K Medium (ATCC)+10% FBS+2 mM Glutamax™ I+Penicillin (100 u/ml)/Streptomycin (100 μg/ml). DU145 (ATCC): The human prostate cancer cell line DU145 was cultured in Eagle's Minimum Essential Medium (ATCC)+10% FBS+2 mM Glutamax™ I+Penicillin (100 u/ml)/Streptomycin (100 μg/ml). A431 (ATCC): The human epidermoid cancer cell line A431 was cultured in DMEM (ATCC)+10% fetal bovine serum (FBS)+2 mM Glutamax™ I+Penicillin (100 u/ml)/Streptomycin (100 μg/ml). SKBR-3 (ATCC): The human breast cancer cell line SKBR3 was cultured in McCoy's 5A Medium. Modified (ATCC)+10% FBS+2 mM Glutamax™ I+Penicillin (100 u/ml)/Streptomycin (100 μg/ml).
(§11) Cells were seeded in 6-well plates (NUNC™) and treated when 50-60% confluent. The transfection of cells by ON180 was performed as described by the manufacturer using serum-free OptiMEM® (Gibco™) and 5 μg/ml Lipofectamine™-2000. ONCONT served as a negative control. The treated cells were incubated at 37° C. for 4 hours and then washed with OptiMEM®, after which regular serum-containing medium was added.

ErbB3 mRNA [3] = experiment: ErbB3 mRNA level by qRT-PCR in DU145 cells; conditions: ON180 alone, FIG. 4C
Method: as §5, §6, §7, §8

ErbB3 mRNA [4] = experiment: ErbB3 mRNA level by qRT-PCR in A549 cells; conditions: ON180 alone, FIG. 1C, read-out: expression of ErbB3 mRNA IC50
Method: as §5, §6, §7, §8

A431 cells = experiment: Cell proliferation assay (MTS), A431; conditions: ON180 alone, Lipofectamine-2000 transfection, FIG. 6A, 6B, read-out: cell growth IC50
Method: as §9, §10, §11

ErbB3 mRNA [5] = experiment: ErbB3 mRNA level by qRT-PCR in A431 cells; conditions: ON180 alone, FIG. 6C
Method: as §5, §6, §7, §8

ErbB3 mRNA [6] = experiment: ErbB3 mRNA level by qRT-PCR in SKBR3 cells; conditions: ON180 alone, FIG. 5C
Method: as §5, §6, §7, §8

| Compound | effect of gefitinib on proliferation (15PC3 cells; gefitinib 20 μM, 48 hours) | effect of gefitinib on proliferation (DU145 cells; gefitinib 40 μM, 48 hours) | sensitivity of cells to gefitinib (SKBR3 cells; gefitinib alone) | effect of gefitinib alone on proliferation (A549 cells; gefitinib 40 μM, 48 hours) | expression of ErbB3 mRNA (ErbB3 mRNA [1]) | ErbB3 mRNA (ErbB3 mRNA [2]) | IC50 (H1993 cells) [nM] | IC50 (15PC3 cells; ON180 alone, Lipofectamine-2000 transfection, 3B, read-out: cell growth IC50) [nM] | expression of ErbB3 mRNA (ErbB3 mRNA [3]) | IC50 (ErbB3 mRNA [4]) [nM] | IC50 (A431 cells) [nM] | IC50 (DU145 cells; ON180 alone, Lipofectamine-2000 transfection, 4B, read-out: cell growth IC50) [nM] | IC50 (SKBR3 cells; ON180 alone, Lipofectamine-2000 transfection, 5B, read-out: cell growth IC50) [nM] | ErbB3 mRNA (ErbB3 mRNA [5]) | IC50 (A549 cells; ON180 alone, Lipofectamine-2000 transfection, 1B, read-out: cell growth IC50) [nM] | expression of ErbB3 mRNA (ErbB3 mRNA [6]) |
| --- | --- | --- | --- | --- | --- | --- | --- | --- | --- | --- | --- | --- | --- | --- | --- | --- |
| COc1cc2ncnc(Nc3ccc(F)c(Cl)c3)c2cc1OCCCN1CCOCC1 [gefitinib, reference compound] | did not affect proliferation | did not affect proliferation | sensitive | did not affect proliferation | – | – | – | – | – | – | – | – | – | – | – | – |
| 5′-TsAsGscscstsgstscsascststs^MeCsTs^MeC-3′ (lT*lA*lG*dC*dC*dT*dG*dT*dC*dA*dC*dT*dT*l[5mC]*lT*l[5mC]) [ON180] | – | – | – | – | potently inhibited | potently inhibited | 1 | < 2 | effectively inhibited | < 2 | < 1 | < 5 | < 5 | effectively inhibited | < 5 | effectively inhibited |
